This passage reports IC50 results from patent US12606528B2, “Methods and materials for inhibiting NF-kB activity” (University of Pittsburgh - Of the Commonwealth System of …, priority 2019, dated 2026).

One may read the IC50 as the point on the concentration scale where inhibition reaches its midpoint.

Structures are written as SMILES. Some results are limits rather than exact numbers.

For one test, the system named is TNF release. In words: TNF assay: TNF release from LPS-stimulated human PBMCs (TNF ELISA). It is filed as cell-based. The conditions noted are these: PBMC; human PBMCs; compounds 2 hours before LPS (10 ng/ml) for 18 hours; supernatant TNF ELISA; read-out: IC50 (TNF assay). An outline of the steps:
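Human PBMCs at 10k/well pretreated with compound dilutions 2 h, then stimulated with LPS (10 ng/mL) for 18 h. TNF in supernatants quantified by ELISA; IC50 for inhibition of TNF release fitted from concentration–response.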
In general terms: An ELISA detects its analyte on a solid surface through an enzyme-linked reagent.

A further test concerns NF-κB. In words: NF-κB assay: THP1-NF-κB-LUC cells, LPS-stimulated secreted luciferase. It is filed as cell-based. The conditions noted are these: THP1-NF-κB-LUC cells; compounds 2 hours before LPS (10 ng/mL) for 18 hours; secreted luciferase; read-out: IC50 (NF-κB assay). In short, it runs like this: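 THP1-NF-κB-LUC cells (25k/well) were pretreated with compounds for 2 h, then stimulated with LPS (10 ng/mL) for 18 h. Secreted luciferase was measured and normalized to vehicle, and IC50 was fitted from the concentration series.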

`CCC1Oc2cc(S(=O)(=O)Nc3ccccc3)c(Br)cc2N(C)C1=O` (centres unmarked) [BC19928]: the IC50 in the test on TNF release lay within 1 to 10 µM; in the test on NF-κB, 0.1 to 1 µM.
The like results for `CCC1Oc2c(cc(Br)cc2S(=O)(=O)Nc2ccc(Cl)cc2)N(C)C1=O` (centres unmarked) [BC19929] were, in that order, 1 to 10 µM and under 0.1 µM.
The corresponding values for `CCC1Oc2cc(S(=O)(=O)Nc3ccc(Cl)cc3)c(Br)cc2N(C)C1=O` (centres unmarked) [BC19930] are over 10 µM and 0.1 to 1 µM.
The corresponding values for `CCc1ccc(NS(=O)(=O)c2cc(Br)cc3c2OC(CC)C(=O)N3C)cc1` (centres unmarked) [BC19931] are 1 to 10 µM and under 0.1 µM.
As for `CCc1ccc(NS(=O)(=O)c2cc3c(cc2Br)N(C)C(=O)C(CC)O3)cc1` (centres unmarked) [BC19932], the IC50 with TNF release was 1 to 10 µM; in the test on NF-κB it was under 0.1 µM.
As to `CCC1Oc2c(cc(Br)cc2S(=O)(=O)Nc2ccc(C(C)C)cc2)N(C)C1=O` (centres unmarked) [BC19933], the IC50 was 1 to 10 µM in the test with TNF release and under 0.1 µM in the test with NF-κB.
Regarding `CCC1Oc2cc(S(=O)(=O)Nc3ccc(C(C)C)cc3)c(Br)cc2N(C)C1=O` (centres unmarked) [BC19934], the IC50 lay within 1 to 10 µM with TNF release and 0.1 to 1 µM in the test with NF-κB.
As to `CCC1Oc2c(cc(Br)cc2S(=O)(=O)Nc2ccc(OC)cc2)N(C)C1=O` (centres unmarked) [BC19935], the IC50 was 1 to 10 µM with TNF release and under 0.1 µM in the test with NF-κB.
The like results for `CCC1Oc2cc(S(=O)(=O)Nc3ccc(OC)cc3)c(Br)cc2N(C)C1=O` (centres unmarked) [BC19936] were, in that order, over 10 µM and under 0.1 µM.
The like results for `CCC1Oc2c(cc(Br)cc2S(=O)(=O)Nc2ccc(C)c(Cl)c2)N(C)C1=O` (centres unmarked) [BC19937] were, in that order, 1 to 10 µM and under 0.1 µM.
For the compound `CCC1Oc2cc(S(=O)(=O)Nc3ccc(C)c(Cl)c3)c(Br)cc2N(C)C1=O` (centres unmarked) [BC19938], the IC50 with TNF release lay within 1 to 10 µM; in the test with NF-κB, 0.1 to 1 µM.
As for `COc1ccc2[nH]cc(S(=O)(=O)c3ccc(F)c(F)c3)c(=O)c2n1` [BC 19203], the IC50 was over 10 µM in the test with TNF release and 1 to 10 µM with NF-κB.
Turning to `O=S(=O)(c1ccc(Br)cc1)c1cnccc1O` [BC 19460], the IC50 in the test with TNF release and in the test with NF-κB was over 10 µM throughout.
